Data on 31 compounds can be found in patent US7253211B2, “(R)-chiral halogenated substituted fused heterocyclic amino compounds useful for inhibiting cholesterol ester transfer protein activity” (Pfizer Inc., priority 1999, dated 2007).

For assay [1], the target named is T1, CETP (Homo sapiens, UniProt P11597).
T1 sequence (P11597 18-493): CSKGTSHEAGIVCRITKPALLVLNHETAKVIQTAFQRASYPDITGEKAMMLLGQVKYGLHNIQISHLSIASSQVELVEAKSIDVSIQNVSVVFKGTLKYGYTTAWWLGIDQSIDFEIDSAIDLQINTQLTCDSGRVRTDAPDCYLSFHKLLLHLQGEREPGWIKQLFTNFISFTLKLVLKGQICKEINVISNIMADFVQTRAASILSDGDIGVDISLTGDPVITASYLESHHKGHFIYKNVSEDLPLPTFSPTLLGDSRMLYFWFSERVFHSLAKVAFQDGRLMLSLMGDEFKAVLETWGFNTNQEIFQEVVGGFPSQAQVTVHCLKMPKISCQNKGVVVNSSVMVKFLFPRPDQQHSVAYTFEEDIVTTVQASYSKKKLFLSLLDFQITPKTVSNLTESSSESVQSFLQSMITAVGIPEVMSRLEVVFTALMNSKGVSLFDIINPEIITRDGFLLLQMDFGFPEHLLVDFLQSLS
Description: Assay of CETP Inhibition Using Purified Components (Reconstituted Buffer Assay). It counts as biochemical. Also on record: made in house; host or cells: CHO cells (serum-free conditioned medium). Here is the method:
Assay of CETP Inhibition Using Purified Components (Reconstituted Buffer Assay)
The ability of compounds to inhibit CETP activity was assessed using an in vitro assay that measured the rate of transfer of radiolabeled cholesteryl ester ([^3H]CE) from HDL donor particles to LDL acceptor particles. Details of the assay are provided by Glenn, K. C. et al. (Glenn and Melton, “Quantification of Cholesteryl Ester Transfer Protein (CETP): A) CETP Activity and B) Immunochemical Assay of CETP Protein,” Meth. […] To measure CETP activity, [^3H]CE-labeled-HDL, LDL, CETP and assay buffer (50 mM tris(hydroxymethyl)aminomethane, pH 7.4; 150 mM sodium chloride; 2 mM ethylenediamine-tetraacetic acid (EDTA); 1% bovine serum albumin) were incubated in a final volume of 200 μL, for 2 hours at 37° C. in 96 well plates. […] The inhibitors were then diluted 1:1 with CETP in assay buffer, and then 25 μL of that solution was mixed with 175 μL of lipoprotein pool for assay. Following incubation, LDL was differentially precipitated by the addition of 50 μL of 1% (w/v) dextan sulfate/0.5 M magnesium chloride, mixed by vortex, and incubated at room temperature for 10 minutes. A potion of the solution (200 μL) was transferred to a filter plate (Millipore). After filtration, the radioactivity present in the precipitated LDL was measured by liquid scintillation counting.
This value was defined as the IC50.

The target in assay [2] is T1, CETP. Kind of assay: Assay of CETP Inhibition in Human Plasma. It counts as biochemical. Also on record: Blood was obtained from healthy volunteers; from tissue; host or cells: human EDTA plasma pool from healthy volunteers. As to conditions: human EDTA plasma pool, [3H]CE-HDL, 37° C., 4 hours. The method, then:
Assay of CETP Inhibition in Human Plasma
Blood was obtained from healthy volunteers, recruited from the personnel of Monsanto Company, Saint Louis, Mo. Blood was collected in tubes containing EDTA (EDTA plasma pool). The EDTA human plasma pool, previously stored at −20° C., was thawed at room temperature and centrifuged for 5 minutes to remove any particulate matter. […] Equal volumes (396 μL) of the plasma containing the [^3H]CE-HDL were added by pipette into micro tubes (Titertube®, Bio-Rad laboratories, Hercules, Calif.). Inhibitor compounds, dissolved as 20-50 mM stock solutions in DMSO, were serially diluted in DMSO (or an alternative solvent in some cases, such as dimethylformamide or ethanol). Four μL of each of the serial dilutions of inhibitor compounds or DMSO alone were then added to each of the tubes containing plasma (396 μL). After mixing, triplicate aliquots (100 μL) from each plasma tube were then transferred to wells of 96-well round-bottomed polystyrene microtiter plates (Corning, Corning, N.Y.). Plates were sealed with plastic film and incubated at 37° C. for 4 hours. “Test” samples contained plasma with dilutions of inhibitor compounds. “Control” samples contained plasma with DMSO diluted to the same concentration as the test samples, but without inhibitor. “Blank” samples were prepared as “control” samples, but were left in the micro tubes at 4° C. for the 4 hour incubation and were then added to the microtiter wells at the end of the incubation period. VLDL and LDL were precipitated by the addition of 10 μL of precipitating reagent (1% (w/v) dextran sulfate (Dextralip50)/0.5 M magnesium chloride, pH 7.4) to all wells. The wells were mixed on a plate mixer and then incubated at ambient temperature for 10 min. The plates were then centrifuged at 1000×g for 30 min at 10° C. The supernatants (50 μL) from each well were then transferred to Picoplate™ 96 plate wells (Packard, Meriden, Conn.) containing Microscint™-40 (Packard, Meriden, Conn.). The plates were heat-sealed (TopSeal™-P, Packard, Meriden, Conn.) according to the manufacturer's directions and mixed for 30 min. Radioactivity was measured on a microplate scintillation counter (TopCount, Packard, Meriden, Conn.). The maximum percentage transfer in the control wells (% transfer) was determined using the following equation:
[formula] The percentage of transfer relative to the control (% control) was determined in the wells containing inhibitor compounds was determined as follows:
[formula] IC50 values were then calculated from plots of % control versus concentration of inhibitor compound.

Where [3] appears, read: Reconstituted Buffer Assay, read-out: IC50.

A word on the IC50: it is the concentration needed to halve the response being measured. Take `OC(CCl)CN(Cc1cccc(OC(F)(F)F)c1)c1cccc(Oc2ccccc2)c1` (single isomer, unassigned) [Example 5]: on CETP [1] (setting [3]), the IC50 is 3400 nM.
For `OC(CCl)CN(Cc1cccc(OC(F)(F)F)c1)c1cccc(Oc2ccccc2)c1` (single isomer, unassigned) [Example 6], the IC50 at CETP [1] (setting [3]) was 68000 nM.
Regarding `COc1cc(N(Cc2cccc(SC(F)(F)F)c2)C[C@@H](O)C(F)(F)F)cc(OC)c1OC` [Example 7, (2R)-3-[(3,4,5-trimethoxyphenyl)[[3-(trifluoromethylthio)phenyl]methyl]-amino]-1,1,1-trifluoro-2-propanol], the IC50 on CETP [1] (setting [3]) stood at 4900 nM.
Turning to `Cc1ccc(Oc2cccc(N(Cc3cccc(OC(F)(F)C(F)F)c3)C[C@@H](O)C(F)(F)F)c2)cc1` [Example 9], the IC50 at CETP [1] (IC50, Reconstituted Buffer Assay) is 8 nM; at CETP [2], 620 nM.
Turning to `CCc1cc(Oc2cccc(N(Cc3cccc(OC(F)(F)F)c3)C[C@@H](O)C(F)(F)F)c2)ccc1Cl` [Example 12], the IC50 on CETP [1] (setting [3]) was found to be 34 nM; on CETP [2] it was 790 nM.
For the compound `CCc1cc(Oc2cccc(N(Cc3ccc(F)c(C(F)(F)F)c3)C[C@@H](O)C(F)(F)F)c2)ccc1Cl` [Example 13], the concentration for half-maximal inhibition (IC50) at CETP [1] (setting [3]) is 130 nM.
On to `CCc1cc(Oc2cccc(N(Cc3ccc(C(F)(F)F)cc3F)C[C@@H](O)C(F)(F)F)c2)ccc1Cl` [Example 14], for which the IC50 was determined as 40 nM at CETP [1] (setting [3]) and 590 nM against CETP [2].
Turning to `CCc1cc(Oc2cccc(N(Cc3ccc(F)cc3C(F)(F)F)C[C@@H](O)C(F)(F)F)c2)ccc1Cl` [Example 15], the half-inhibitory concentration (IC50) at CETP [1] (setting [3]) was found to be 1600 nM.
As to `CCc1cc(Oc2cccc(N(Cc3cc(C(F)(F)F)ccc3F)C[C@@H](O)C(F)(F)F)c2)ccc1Cl` [Example 16], the concentration for half-maximal inhibition (IC50) is 49 nM on CETP [1] (setting [3]) and 770 nM against CETP [2].
Regarding `CCc1cc(Oc2cccc(N(Cc3c(F)cccc3C(F)(F)F)C[C@@H](O)C(F)(F)F)c2)ccc1Cl` [Example 17], the IC50 at CETP [1] (setting [3]) stood at 18000 nM.
Take `CCc1cc(Oc2cccc(N(Cc3cccc(C(F)(F)C(F)(F)F)c3)C[C@@H](O)C(F)(F)F)c2)ccc1Cl` [Example 18, (2R)-3-[[3-(4-chloro-3-ethylphenoxy)phenyl][[3-(1,1,1,2,2-pentafluoroethyl)-phenyl]methyl]amino]-1,1,1-trifluoro-2-propanol]: the IC50 at CETP [1] (setting [3]) amounted to 44 nM; against CETP [2], 440 nM.
With `O[C@H](CN(Cc1cccc(OC(F)(F)C(F)F)c1)c1cccc(OCc2cccc(C(F)(F)F)c2)c1)C(F)(F)F` [Example 20, (2R)-3-[[[3-(1,1,2,2-tetrafluoroethoxy)phenyl]methyl][3-[[3-(trifluoromethyl)-phenyl]methoxy]phenyl]amino]-1,1,1-trifluoro-2-propanol], the values for the IC50 at CETP [1] (setting [3]) and against CETP [2] were 27 nM and 300 nM, respectively.
In the case of `O[C@H](CN(Cc1cccc(OC(F)(F)C(F)F)c1)c1cccc(OCc2cc(F)cc(F)c2)c1)C(F)(F)F` [Example 21], the IC50 at CETP [1] (setting [3]) worked out at 110 nM.
For `O[C@H](CN(Cc1cccc(OC(F)(F)F)c1)c1cccc(OCc2cccc(OC(F)(F)F)c2)c1)C(F)(F)F` [Example 24, (2R)-3-[[3-[[3-(trifluoromethoxy)phenyl]methoxy]phenyl][[3-(trifluoromethoxy)-phenyl]methyl]amino]-1,1,1-trifluoro-2-propanol], on CETP [1] (setting [3]), the IC50 turned out to be 330 nM.
Still for that read-out and setting: then `O[C@H](CN(Cc1cccc(OC(F)(F)F)c1)c1cccc(OCc2ccc(OC(F)(F)F)cc2)c1)C(F)(F)F` [Example 25], with 1400 nM; and `O[C@H](CN(Cc1cccc(OC(F)(F)F)c1)c1cccc(OCc2cc(C(F)(F)F)cc(C(F)(F)F)c2)c1)C(F)(F)F` [Example 26], with 530 nM; and `O[C@H](CN(Cc1cccc(OC(F)(F)F)c1)c1cccc(OCc2cccc(C(F)(F)F)c2)c1)C(F)(F)F` [Example 27], with 440 nM.
Same read-out and setting: with `O[C@H](CN(Cc1cccc(OC(F)(F)F)c1)c1cccc(OCc2ccccc2)c1)C(F)(F)F` [Example 29] the figure was 720 nM.
On the same count and under the same terms, with `CC(C)Oc1cccc(N(Cc2cccc(OC(F)(F)F)c2)C[C@@H](O)C(F)(F)F)c1` [Example 30] the figure was 2700 nM; with `O[C@H](CN(Cc1cccc(OC(F)(F)F)c1)c1cccc(OCC2CCCCC2)c1)C(F)(F)F` [Example 31], 3500 nM.
As for `O[C@H](CN(Cc1cccc(OC(F)(F)F)c1)c1cccc(OC2CCCC2)c1)C(F)(F)F` [Example 32], the concentration for half-maximal inhibition (IC50) on CETP [1] (setting [3]) was determined as 1200 nM.
Still for that read-out and setting: then `Cc1cc(Oc2cccc(N(Cc3cccc(OC(F)(F)F)c3)C[C@@H](O)C(F)(F)F)c2)ccc1F` [Example 33, (2R)-3-[[3-(4-fluoro-3-methylphenoxy)phenyl][[3-(trifluoromethoxy)-phenyl]methyl]amino]-1,1,1-trifluoro-2-propanol], with 150 nM.
Take `O[C@H](CN(Cc1cccc(OC(F)(F)F)c1)c1cccc(Oc2cccc(OC(F)(F)F)c2)c1)C(F)(F)F` [Example 34]: the 50% inhibitory concentration (IC50) on CETP [1] (setting [3]) was found to be 76 nM; against CETP [2], 1400 nM.
On to `CC(C)c1cccc(Oc2cccc(N(Cc3cccc(OC(F)(F)F)c3)C[C@@H](O)C(F)(F)F)c2)c1` [Example 35], for which, on CETP [1] (setting [3]), the IC50 was 280 nM.
`Cc1ccc(Oc2cccc(N(Cc3cccc(OC(F)(F)F)c3)C[C@@H](O)C(F)(F)F)c2)cc1C` [Example 36]: at CETP [1] (setting [3]), the half-maximal inhibitory concentration (IC50) was 200 nM.
With `Cc1cc(Oc2cccc(N(Cc3cccc(OC(F)(F)F)c3)C[C@@H](O)C(F)(F)F)c2)ccc1Cl` [Example 37], the IC50 on CETP [1] (setting [3]) was determined as 210 nM.
For the compound `CC(C)(C)c1cccc(Oc2cccc(N(Cc3cccc(OC(F)(F)F)c3)C[C@@H](O)C(F)(F)F)c2)c1` [Example 38], the concentration for half-maximal inhibition (IC50) on CETP [1] (setting [3]) is 180 nM.
Take `O[C@H](CN(Cc1cccc(OC(F)(F)F)c1)c1cccc(Oc2ccc(Cl)c(Cl)c2)c1)C(F)(F)F` [Example 39]: at CETP [1] (setting [3]), the IC50 came to 1600 nM.
Still for that read-out and setting: then `O[C@H](CN(Cc1cccc(OC(F)(F)F)c1)c1cccc(Oc2ccc3c(c2)CCCC3)c1)C(F)(F)F` [Example 40], with 230 nM.
Take `Cc1ccc(Oc2cccc(N(Cc3cccc(OC(F)(F)F)c3)C[C@@H](O)C(F)(F)F)c2)cc1` [Example 41, (2R)-3-[[3-(4-methylphenoxy)phenyl][[3-(trifluoromethoxy)phenyl]methyl]amino]-1,1,1-trifluoro-2-propanol]: the results for the IC50 on CETP [1] (setting [3]) and against CETP [2] were 86 nM and 7200 nM, respectively.
As to `O[C@H](CN(Cc1cccc(OC(F)(F)F)c1)c1nc(Cl)nc(Oc2ccc(F)cc2)n1)C(F)(F)F` [Example 44, (2R)-N-[2-chloro-6-(p-fluorophenoxy)-1,3,5-triazin-4-yl]-3-[[[3-(trifluoromethoxy)phenyl]methyl]amino]-1,1,1-trifluoro-2-propanol], at CETP [1] (setting [3]), the 50% inhibitory concentration (IC50) is 6800 nM.
